Assay results: US9889225B2 (KAOHSIUNG MEDICAL UNIVERSITY, priority 2010, dated 2018)

What was measured:
[1] = system: bone morphogenetic protein-2 (BMP-2); details: 6 weeks after implantation, versus PLGA group
Experimental: (§1) For anesthesia, an intraperitoneal injection with a mixture of ketamin hydrochloride (100 mg/ml per 80 mg/kg body weight) and xylazin 2% (12 mg/kg body weight) were used. The left thigh was shaved and a 3 cm lateral longitudinal skin incision was made. The lateral approach was performed posterior to vastus lateralis without damaging the muscle. A bone defect, 0.1 cm×0.4 cm in size, on left femur was created at middle portion of shaft by using a 0.5 mm cone-shape bur. After that, the implant was inserted into the cavity and covered with […] ™ (Johnson & Johnson Medical Limited, Neuchatel, Switzerland) to fix the implant in place. Radiographs were taken to verify the correct position of the bone defect using the great trochanter as control point. At the end of operation, skin wounds were sutured. Six weeks after operation, animals were sacrificed for biomechanical and histological analysis.
The 5 μm thick sections of femoral bone were incubated in 0.1% EDTA for 10 min at 100 degree for antigen retrieval. Immunohistochemistry (IHC) was performed using the Immuno Cruz Staining System (Santa Cruz). After incubating with 5% BSA/PBS (Sigma, Saint Louis, Mo., USA) blocking solution for 2 h at room temperature, sections were labeled with human-specific anti-BMP2 (dilution 1:50; Abcam) overnight at 4 degree in a humid chamber. […]

rat femur bone defect [2] = assay: Rat femur bone defect model, micro-CT trabecular bone volume; details: 6 weeks after surgery; for trabecular bone volume in the femoral defect site: normalized with total defect length
Experimental: For anesthesia, an intraperitoneal injection with a mixture of ketamin hydrochloride (100 mg/ml per 80 mg/kg body weight) and xylazin 2% (12 mg/kg body weight) were used. The left thigh was shaved and a 3 cm lateral longitudinal skin incision was made. The lateral approach was performed posterior to vastus lateralis without damaging the muscle. A bone defect, 0.1 cm×0.4 cm in size, on left femur was created at middle portion of shaft by using a 0.5 mm cone-shape bur. After that, the implant was inserted into the cavity and covered with […] ™ (Johnson & Johnson Medical Limited, Neuchatel, Switzerland) to fix the implant in place. Radiographs were taken to verify the correct position of the bone defect using the great trochanter as control point. At the end of operation, skin wounds were sutured.
Animals were anesthesia during micro-CT images scanning. Small animal micro-CT (Skyscan 1076, Bruker, Belgium) was employed for analyzing bone repair process in living animals and calculated by image software (CTAn) at the desired time point. The scan conditions were set at an aluminum filter of 0.5mm, 35 μm scanning resolution, x-ray voltage of 50 KV, x-ray current of 200 mA and an exposure time of 600 m-seconds. The area used for analysis began at the defect site close to femoral head and through all the defect area. Total volume indicated the inner area of cortical bone. Trabecular bone volume indicated the total trabecular bone within the total volume. Trabecular bone volume was normalized with total defect length in each rat.

rat femur bone defect [3] = details: 6 weeks after implantation
Experimental: as §1
Femoral bone specimens were harvested for histological study 6 weeks after implantation. […] The 5-mm thick bone sections were removed and stained with hematoxylin and eosin (H&E; Santa Cruz, Santa Cruz, Calif., USA). A microscope with 10×, 100×, 400× magnification, equipped with a digital CCD camera (Eclipse 50i; Nikon Inc., Mich., USA), were used for images of the sections.

rat femur bone defect [4] = assay: Rat femur bone defect model, 3-point bending test; details: post-surgery 6 weeks
Experimental: as §1
The present invention employed 3-point bending test to analyze the mechanical property at the end of experiment. Counterlateral femoral bone served as a non-defect femoral bone.
Mechanical property of bone: 3-point bending test: For testing the mechanical property of the repaired femoral defect, the Instron 4466 (model 4465; Instron, Canton, Mass.) was employed for mechanical tests. The rat femur was removed from body and all the connective tissues were stripped off. For 3-point bending, the femur bone was positioned onto two supports, and a single-pronged loading device was applied to the opposite surface at a point precisely in the middle between the two supports. The distance between two supports was 4 cm. Loading force was 1N with speed of 1 mm/min. The experimental procedure involved the measurement of the deflection of the bone at the point of load application and the concurrent measurement of the load, yielding a force-deflection graph. Parameters obtained from this graph include whole-bone stiffness (defined as the slope of the early, linear portion of the load-deflection curve), yield point, maximal load and fracture load. The Young's modulus of the material from the geometry of the loading device and the stiffness of the bone were measured. The data calculations were all based on beam theory and the Hooke's law.

Substance: poly(lactic-co-glycolic acid) cross-linked alendronate [PLGA-ALN]
- immunolocalized BMP-2 in the repaired cortical bone and trabecular bone [1]: predominant
- trabecular bone volume relative to the control or PLGA group (rat femur bone defect [2]; 5 mg implant): 2 times
- trabecular bone volume in the femoral defect site (rat femur bone defect [2]; 5 mg implant): 1.413±0.21
- trabecular bone volume relative to the control or PLGA group (rat femur bone defect [2]; 10 mg implant): 2 times
- trabecular bone volume in the femoral defect site (rat femur bone defect [2]; 10 mg implant): 1.45±0.35
- cortical bone thickness and trabecular bone (H&E) versus PLGA group (rat femur bone defect [3]): Thicker cortical bone and more trabecular bone
- Young's modulus (rat femur bone defect [4]; 5 mg implant): 0.43±0.03 GPa
- maximal strength (rat femur bone defect [4]; 5 mg implant): 172.5±18.2 N
- total energy absorption (rat femur bone defect [4]; 5 mg implant): 106.43±15.36 mm*N
- Young's modulus (rat femur bone defect [4]; 10 mg implant): 0.51±0.03 GPa
- maximal strength (rat femur bone defect [4]; 10 mg implant): 191.7±11.7 N
- total energy absorption (rat femur bone defect [4]; 10 mg implant): 110.71±9.95 mm*N
